Results reported in patent US20250388553A1 (Incyte Corporation, priority 2018, published 2025).
Where a name gives a salt, the structure may show the parent alone.

Columns and labels:
[1] = target: PI3Kδ (p1106/p85a) Recombinant Human Protein (Homo sapiens (Human), UniProt O00329); assay: PI3Kδ scintillation proximity assay; assay type: biochemical; settings: scintillation proximity assay, recombinant human PI3Kδ
From the text: Example C. PI3Kδ Scintillation Proximity Assay
(§1) Materials: [γ-^33P]ATP (10 mCi/mL) and Wheat Germ Agglutinin (WGA) YSi SPA Scintillation Beads was purchased from Perkin Elmer (Waltham, MA). Lipid kinase substrate, D-myo-Phosphatidylinositol 4,5-bisphosphate (PtdIns(4,5)P2)D (+)-sn-1,2-di-O-octanoylglyceryl, 3-O-phospho linked (PIP2), CAS 204858-53-7, was purchased from Echelon Biosciences (Salt Lake City, UT). PI3Kδ (p1106/p85a) Recombinant Human Protein was purchased from Eurofins (St Charles, MO). ATP, MgCl2, DTT, EDTA, MOPS and CHAPS were purchased from Sigma Aldrich (St. Louis, MO).
(§2) The kinase reaction was conducted in polystyrene 384-well Greiner Bio-one white plate from Thermo Fisher Scientific in a final volume of 25 μL. Inhibitors were first diluted serially in DMSO and added to the plate wells before the addition of other reaction components. The final concentration of DMSO in the assay was 2%. The PI3Kδ assay was carried out at room temperature in 20 mM MOPS, pH 6.7, 10 mM MgCl2, 5 mM DTT and CHAPS 0.03%. Reactions were initiated by the addition of ATP, the final reaction mixture consisted of 20 µM […], 0.5 μCi [γ-^33P]ATP, 3.4 nM PI3Kδ. Reactions were incubated for 120 min and terminated by the addition of 40 μL SPA beads suspended in quench buffer: 163 mM potassium phosphate pH 7.8, 20% glycerol, 25 mM EDTA. The final concentration of SPA beads is 1.0 mg/mL. After the plate sealing, plates were shaken overnight at room temperature and centrifuged at 1500 rpm for 10 min, the radioactivity of the product was determined by scintillation counting on Topcount (PerkinElmer). IC50 determination was performed by fitting the curve of percent of the solvent control activity versus the log of the inhibitor concentration using the GraphPad Prism 6.0 software.
(§3) The compounds of the Examples were tested in the assays described in Examples A, B and C and found to have the IC50s are shown in Tables A1, A2, A3 and A4.

[2] = target: PI3Kγ (p110γ) Recombinant Human Protein (Homo sapiens (Human), UniProt P48736); assay: PI3K-γ scintillation proximity assay; assay type: biochemical; settings: Table A1; scintillation proximity assay, recombinant human p110γ
Chain of PI3Kγ (p110γ) Recombinant Human Protein (P48736 whole entry): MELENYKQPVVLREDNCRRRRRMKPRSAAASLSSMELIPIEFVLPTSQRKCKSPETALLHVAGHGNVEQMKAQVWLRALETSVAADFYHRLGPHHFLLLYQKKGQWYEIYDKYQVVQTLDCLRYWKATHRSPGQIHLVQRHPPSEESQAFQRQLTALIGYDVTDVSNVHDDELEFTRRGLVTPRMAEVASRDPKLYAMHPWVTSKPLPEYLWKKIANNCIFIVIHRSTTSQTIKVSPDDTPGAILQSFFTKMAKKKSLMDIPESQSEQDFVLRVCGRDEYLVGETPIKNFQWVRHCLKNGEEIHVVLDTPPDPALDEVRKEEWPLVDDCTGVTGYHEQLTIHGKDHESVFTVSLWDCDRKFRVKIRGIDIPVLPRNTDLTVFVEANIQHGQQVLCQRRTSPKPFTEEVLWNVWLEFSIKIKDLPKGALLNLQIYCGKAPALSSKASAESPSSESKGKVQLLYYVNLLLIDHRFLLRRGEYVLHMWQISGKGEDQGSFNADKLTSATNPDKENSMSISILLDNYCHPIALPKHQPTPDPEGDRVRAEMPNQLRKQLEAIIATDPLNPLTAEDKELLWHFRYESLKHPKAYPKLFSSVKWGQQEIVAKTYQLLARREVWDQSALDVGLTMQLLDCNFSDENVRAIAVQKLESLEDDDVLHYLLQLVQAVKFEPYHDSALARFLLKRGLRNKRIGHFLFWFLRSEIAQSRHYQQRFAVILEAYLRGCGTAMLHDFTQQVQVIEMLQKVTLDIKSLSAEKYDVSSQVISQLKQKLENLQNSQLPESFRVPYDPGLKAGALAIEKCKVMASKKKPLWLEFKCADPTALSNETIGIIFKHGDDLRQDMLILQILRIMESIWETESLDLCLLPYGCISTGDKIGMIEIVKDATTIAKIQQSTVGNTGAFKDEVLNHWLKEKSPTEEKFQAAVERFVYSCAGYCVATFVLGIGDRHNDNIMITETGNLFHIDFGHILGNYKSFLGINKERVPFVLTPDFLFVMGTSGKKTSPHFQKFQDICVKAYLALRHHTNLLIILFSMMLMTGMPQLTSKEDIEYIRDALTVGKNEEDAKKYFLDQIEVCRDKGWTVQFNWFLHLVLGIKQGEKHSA
From the text: Example B. PI3K-γ Scintillation Proximity Assay
as §1, with “PI3Kγ (p110γ)” for “PI3Kδ (p1106/p85a)”, “Life technology (Grand Island, NY).” for “Eurofins (St Charles, MO).”
as §2, with “[…].” for “μL.”, “PI3Kγ” for “PI3Kδ”, “13” for “3.4”, “PI3Kγ.” for “PI3Kδ.”, “(Perkin-Elmer).” for “(PerkinElmer).”
as §3

Chain of PI3Kδ (p1106/p85a) Recombinant Human Protein (O00329 whole entry): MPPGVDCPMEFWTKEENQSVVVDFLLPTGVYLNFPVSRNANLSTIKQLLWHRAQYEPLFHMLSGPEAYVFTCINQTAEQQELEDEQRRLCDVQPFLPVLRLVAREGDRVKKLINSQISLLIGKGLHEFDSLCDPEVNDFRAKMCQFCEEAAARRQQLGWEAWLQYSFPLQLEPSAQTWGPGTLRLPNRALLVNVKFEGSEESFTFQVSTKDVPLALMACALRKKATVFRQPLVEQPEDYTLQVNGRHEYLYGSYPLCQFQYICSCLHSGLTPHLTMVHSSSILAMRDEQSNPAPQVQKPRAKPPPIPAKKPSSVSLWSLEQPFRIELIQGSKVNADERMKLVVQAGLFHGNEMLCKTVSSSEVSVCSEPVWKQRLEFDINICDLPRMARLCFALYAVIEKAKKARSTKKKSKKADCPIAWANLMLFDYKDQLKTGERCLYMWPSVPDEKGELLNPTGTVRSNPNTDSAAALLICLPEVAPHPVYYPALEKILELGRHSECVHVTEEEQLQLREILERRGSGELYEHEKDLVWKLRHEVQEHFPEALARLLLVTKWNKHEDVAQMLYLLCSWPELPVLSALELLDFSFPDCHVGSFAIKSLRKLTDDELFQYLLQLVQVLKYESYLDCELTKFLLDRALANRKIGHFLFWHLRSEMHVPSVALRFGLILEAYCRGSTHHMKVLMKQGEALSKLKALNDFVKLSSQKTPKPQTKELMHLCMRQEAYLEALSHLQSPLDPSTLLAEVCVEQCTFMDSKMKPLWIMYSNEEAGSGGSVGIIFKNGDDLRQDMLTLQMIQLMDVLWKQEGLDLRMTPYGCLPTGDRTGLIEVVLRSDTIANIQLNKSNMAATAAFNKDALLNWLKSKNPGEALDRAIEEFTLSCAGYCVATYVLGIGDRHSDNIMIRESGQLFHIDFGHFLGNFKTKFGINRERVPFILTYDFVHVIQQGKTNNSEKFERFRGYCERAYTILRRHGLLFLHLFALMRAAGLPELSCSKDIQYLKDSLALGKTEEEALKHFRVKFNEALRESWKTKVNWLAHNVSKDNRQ
Chain of PI3Kδ (p1106/p85a) Recombinant Human Protein (P27986 whole entry partner): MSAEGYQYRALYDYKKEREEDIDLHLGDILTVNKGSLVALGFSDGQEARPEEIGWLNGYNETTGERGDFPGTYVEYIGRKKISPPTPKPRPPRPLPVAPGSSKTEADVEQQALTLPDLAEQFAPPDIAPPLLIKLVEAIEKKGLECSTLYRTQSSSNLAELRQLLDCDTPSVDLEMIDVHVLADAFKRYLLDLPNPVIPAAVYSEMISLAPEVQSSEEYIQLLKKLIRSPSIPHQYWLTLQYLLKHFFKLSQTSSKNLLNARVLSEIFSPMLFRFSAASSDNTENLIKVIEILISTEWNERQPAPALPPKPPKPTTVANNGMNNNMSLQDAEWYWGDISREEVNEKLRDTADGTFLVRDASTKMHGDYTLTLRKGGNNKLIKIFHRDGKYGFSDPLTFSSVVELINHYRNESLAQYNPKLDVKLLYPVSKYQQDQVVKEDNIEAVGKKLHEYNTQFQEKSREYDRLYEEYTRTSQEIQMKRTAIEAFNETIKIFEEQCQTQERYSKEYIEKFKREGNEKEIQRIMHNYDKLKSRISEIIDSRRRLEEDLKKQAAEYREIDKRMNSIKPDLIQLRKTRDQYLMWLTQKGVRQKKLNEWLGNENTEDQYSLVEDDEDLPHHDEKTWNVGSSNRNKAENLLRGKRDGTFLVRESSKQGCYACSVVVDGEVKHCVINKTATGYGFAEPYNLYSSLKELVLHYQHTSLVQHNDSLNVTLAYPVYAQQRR

SMILES: Cc1ccc(C(O)(C(N)=O)C(F)(F)F)cc1-c1cnc(N)c(C(=O)NC2CC3CCC2O3)n1 (single isomer, unassigned) [Example 30, 3-amino-6-(5-(3-amino-1,1,1-trifluoro-2-hydroxy-3-oxopropan-2-yl)-2-methylphenyl)-N-(7-oxabicyclo[2.2.1]heptan-2-yl)pyrazine-2-carboxamide]
- IC50 ([1]; Table A1): < 100 nM
- IC50 [2]: < 100 nM

SMILES: Cc1ccc(C(O)(C(N)=O)C(F)(F)F)cc1-c1cnc(N)c(C(=O)NCC(O)C(F)(F)F)n1 (single isomer, unassigned) [Example 43B, 3-amino-6-(5-(3-amino-1,1,1-trifluoro-2-hydroxy-3-oxopropan-2-yl)-2-methylphenyl)-N-(3,3,3-trifluoro-2-hydroxypropyl)pyrazine-2-carboxamide]
- IC50 ([1]; Table A1): < 100 nM
- IC50 [2]: < 100 nM

SMILES: Cc1ccc(C(O)(C(N)=O)C(F)(F)F)cc1-c1cnc(N)c(C2CC(C(=O)NC(C)C)C2)n1 (single isomer, unassigned) [Example 111, 3-(3-Amino-6-(5-(3-amino-1,1,1-trifluoro-2-hydroxy-3-oxopropan-2-yl)-2-methylphenyl)pyrazin-2-yl)-N-isopropylcyclobutane-1-carboxamide]
- IC50 ([1]; Table A4): 100 to 500 nM

SMILES: Cc1ccc(C(O)(C(N)=O)C(F)(F)F)cc1-c1cnc(N)c(C(=O)NCC(C)(C)O)n1 (stereo not shown) [Example 1, 3-Amino-6-(5-(3-amino-1,1,1-trifluoro-2-hydroxy-3-oxopropan-2-yl)-2-methylphenyl)-N-(2-hydroxy-2-methylpropyl)pyrazine-2-carboxamide]
- IC50 ([1]; Table A1): < 100 nM
- IC50 [2]: < 100 nM

SMILES: Cc1ccc(C(O)(C(N)=O)C(F)(F)F)cc1-c1cnc(N)c(C(=O)NC2CCOCC2)n1 (stereo not shown) [Example 2, 3-amino-6-(5-(3-amino-1,1,1-trifluoro-2-hydroxy-3-oxopropan-2-yl)-2-methylphenyl)-N-(tetrahydro-2H-pyran-4-yl)pyrazine-2-carboxamide trifluoroacetate]
- IC50 ([1]; Table A1): < 100 nM
- IC50 [2]: < 100 nM

SMILES: Cc1ccc(C(O)(C(N)=O)C(F)(F)F)cc1-c1cnc(N)c(C(=O)NCC2(C#N)CC2)n1 (stereo not shown) [Example 4, 3-amino-6-(5-(3-amino-1,1,1-trifluoro-2-hydroxy-3-oxopropan-2-yl)-2-methylphenyl)-N-((1-cyanocyclopropyl)methyl)pyrazine-2-carboxamide trifluoroacetate]
- IC50 ([1]; Table A1): < 100 nM
- IC50 [2]: < 100 nM

SMILES: Cc1ccc(C(O)(C(N)=O)C(F)(F)F)cc1-c1cnc(N)c(C(=O)NC(C)C)n1 (stereo not shown) [Example 5, 3-Amino-6-(5-(3-amino-1,1,1-trifluoro-2-hydroxy-3-oxopropan-2-yl)-2-methylphenyl)-N-isopropylpyrazine-2-carboxamide trifluoroacetate]
- IC50 ([1]; Table A1): < 100 nM
- IC50 [2]: < 100 nM

SMILES: Cc1ccc(C(O)(C(N)=O)C(F)(F)F)cc1-c1cnc(N)c(C(=O)NC2CCC(F)(F)CC2)n1 (stereo not shown) [Example 6, 3-amino-6-(5-(3-amino-1,1,1-trifluoro-2-hydroxy-3-oxopropan-2-yl)-2-methylphenyl)-N-(4,4-difluorocyclohexyl)pyrazine-2-carboxamide trifluoroacetate]
- IC50 ([1]; Table A1): < 100 nM
- IC50 [2]: < 100 nM

SMILES: CCNC(=O)c1nc(-c2cc(C(O)(C(N)=O)C(F)(F)F)ccc2C)cnc1N (stereo not shown) [Example 7, 3-Amino-6-(5-(3-amino-1,1,1-trifluoro-2-hydroxy-3-oxopropan-2-yl)-2-methylphenyl)-N-ethylpyrazine-2-carboxamide trifluoroacetate]
- IC50 ([1]; Table A1): < 100 nM
- IC50 [2]: < 100 nM

SMILES: Cc1ccc(C(O)(C(N)=O)C(F)(F)F)cc1-c1cnc(N)c(C(=O)N[C@@H](C)CC#N)n1 (stereo partly drawn) [Example 8, 3-amino-6-(5-(3-amino-1,1,1-trifluoro-2-hydroxy-3-oxopropan-2-yl)-2-methylphenyl)-N-((S)-1-cyanopropan-2-yl)pyrazine-2-carboxamide trifluoroacetate]
- IC50 ([1]; Table A1): < 100 nM
- IC50 [2]: < 100 nM

SMILES: Cc1ccc(C(O)(C(N)=O)C(F)(F)F)cc1-c1cnc(N)c(C(=O)N[C@@H]2CCCOC2)n1 (stereo partly drawn) [Example 9, 3-amino-6-(5-(3-amino-1,1,1-trifluoro-2-hydroxy-3-oxopropan-2-yl)-2-methylphenyl)-N-((R)-tetrahydro-2H-pyran-3-yl)pyrazine-2-carboxamide trifluoroacetate]
- IC50 ([1]; Table A1): < 100 nM
- IC50 [2]: < 100 nM

SMILES: Cc1ccc(C(O)(C(N)=O)C(F)(F)F)cc1-c1cnc(N)c(C(=O)N[C@H]2CCCOC2)n1 (stereo partly drawn) [Example 10, 3-amino-6-(5-(3-amino-1,1,1-trifluoro-2-hydroxy-3-oxopropan-2-yl)-2-methylphenyl)-N-((S)-tetrahydro-2H-pyran-3-yl)pyrazine-2-carboxamide trifluoroacetate]
- IC50 ([1]; Table A1): < 100 nM
- IC50 [2]: < 100 nM

SMILES: Cc1ccc(C(O)(C(N)=O)C(F)(F)F)cc1-c1cnc(N)c(C(=O)N[C@H]2CCOC2)n1 (stereo partly drawn) [Example 11, 3-amino-6-(5-(3-amino-1,1,1-trifluoro-2-hydroxy-3-oxopropan-2-yl)-2-methylphenyl)-N-((S)-tetrahydrofuran-3-yl)pyrazine-2-carboxamide trifluoroacetate]
- IC50 ([1]; Table A1): < 100 nM
- IC50 [2]: < 100 nM

SMILES: Cc1ccc(C(O)(C(N)=O)C(F)(F)F)cc1-c1cnc(N)c(C(=O)N[C@@H](C)CO)n1 (stereo partly drawn) [Example 12, 3-amino-6-(5-(3-amino-1,1,1-trifluoro-2-hydroxy-3-oxopropan-2-yl)-2-methylphenyl)-N-((S)-1-hydroxypropan-2-yl)pyrazine-2-carboxamide]
- IC50 ([1]; Table A1): < 100 nM
- IC50 [2]: < 100 nM

SMILES: Cc1ccc(C(O)(C(N)=O)C(F)(F)F)cc1-c1cnc(N)c(C(=O)NC(C)(C)CO)n1 (stereo not shown) [Example 13, 3-Amino-6-(5-(3-amino-1,1,1-trifluoro-2-hydroxy-3-oxopropan-2-yl)-2-methylphenyl)-N-(1-hydroxy-2-methylpropan-2-yl)pyrazine-2-carboxamide]
- IC50 ([1]; Table A1): < 100 nM
- IC50 [2]: < 100 nM

SMILES: Cc1ccc(C(O)(C(N)=O)C(F)(F)F)cc1-c1cnc(N)c(C(=O)NCCC#N)n1 (stereo not shown) [Example 14, 3-amino-6-(5-(3-amino-1,1,1-trifluoro-2-hydroxy-3-oxopropan-2-yl)-2-methylphenyl)-N-(2-cyanoethyl)pyrazine-2-carboxamide trifluoroacetate]
- IC50 ([1]; Table A1): < 100 nM
- IC50 [2]: < 100 nM

SMILES: Cc1ccc(C(O)(C(N)=O)C(F)(F)F)cc1-c1cnc(N)c(C(=O)NCC(C)(C)C#N)n1 (stereo not shown) [Example 15, 3-amino-6-(5-(3-amino-1,1,1-trifluoro-2-hydroxy-3-oxopropan-2-yl)-2-methylphenyl)-N-(2-cyano-2-methylpropyl)pyrazine-2-carboxamide trifluoroacetate]
- IC50 ([1]; Table A1): < 100 nM
- IC50 [2]: < 100 nM

SMILES: Cc1ccc(C(O)(C(N)=O)C(F)(F)F)cc1-c1cnc(N)c(C(=O)NCC2(C#N)CCC2)n1 (stereo not shown) [Example 16, 3-amino-6-(5-(3-amino-1,1,1-trifluoro-2-hydroxy-3-oxopropan-2-yl)-2-methylphenyl)-N-((1-cyanocyclobutyl)methyl)pyrazine-2-carboxamide trifluoroacetate]
- IC50 ([1]; Table A1): < 100 nM
- IC50 [2]: < 100 nM

SMILES: CC[C@@H](CC#N)NC(=O)c1nc(-c2cc(C(O)(C(N)=O)C(F)(F)F)ccc2C)cnc1N (stereo partly drawn) [Example 20, 3-amino-6-(5-(3-amino-1,1,1-trifluoro-2-hydroxy-3-oxopropan-2-yl)-2-methylphenyl)-N-((S)-1-cyanobutan-2-yl)pyrazine-2-carboxamide trifluoroacetate]
- IC50 ([1]; Table A1): < 100 nM
- IC50 [2]: < 100 nM
